Results published in patent US6114310A, “Efflux pump inhibitors” (priority 1998, dated 2000).

System: Pseudomonas aeruginosa PAM1001
Experiment: microbe, parasite or virus in culture
Type: cell-based
Outline: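 Checkerboard broth microdilution (NCCLS) with the efflux pump inhibitor and levofloxacin, each diluted along one axis of the plate, in Mueller Hinton Broth. Inoculum 5×10^5 CFU/ml from early-log culture; incubation 20 h at 35° C. Growth read at 650 nm and visually.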

[1] = Table 1, EPI Conc. μg/ml (number not given; column between 10 and 40 μg/ml)
[2] = Table 2, EPI Conc. μg/ml (number not given; column between 10 and 40 μg/ml)
[3] = Table 3, EPI Conc. μg/ml (number not given; column between 10 and 40 μg/ml)
[4] = Table 4, EPI Conc. μg/ml (number not given; column between 10 and 40 μg/ml)

Row | Substance | Levofloxacin MIC Against P. aeruginosa PAM1001 in Presence of Efflux Pump Inhibitor (EPI), Minimum Inhibitory Concentration (Table 1, EPI Conc. 0 μg/ml) [µg/mL] | Levofloxacin MIC Against P. aeruginosa PAM1001 in Presence of Efflux Pump Inhibitor (EPI), Minimum Inhibitory Concentration (Table 1, EPI Conc. 0.625 μg/ml) [µg/mL] | Levofloxacin MIC Against P. aeruginosa PAM1001 in Presence of Efflux Pump Inhibitor (EPI), Minimum Inhibitory Concentration (Table 1, EPI Conc. 5 μg/ml) [µg/mL] | Levofloxacin MIC Against P. aeruginosa PAM1001 in Presence of Efflux Pump Inhibitor (EPI), Minimum Inhibitory Concentration (Table 1, EPI Conc. 10 μg/ml) [µg/mL] | Levofloxacin MIC Against P. aeruginosa PAM1001 in Presence of Efflux Pump Inhibitor (EPI), Minimum Inhibitory Concentration (Table 1, EPI Conc. 40 μg/ml) [µg/mL] | Levofloxacin MIC Against P. aeruginosa PAM1001 in Presence of Efflux Pump Inhibitor (EPI), Minimum Inhibitory Concentration (Table 1, EPI Conc. […]) [µg/mL] | Levofloxacin MIC Against P. aeruginosa PAM1001 in Presence of Efflux Pump Inhibitor (EPI), Minimum Inhibitory Concentration [1] [µg/mL] | Levofloxacin MIC Against P. aeruginosa PAM1001 in Presence of Efflux Pump Inhibitor (EPI), Minimum Inhibitory Concentration (Table 2, EPI Conc. 0 μg/ml) [µg/mL] | Levofloxacin MIC Against P. aeruginosa PAM1001 in Presence of Efflux Pump Inhibitor (EPI), Minimum Inhibitory Concentration (Table 2, EPI Conc. 0.625 μg/ml) [µg/mL] | Levofloxacin MIC Against P. aeruginosa PAM1001 in Presence of Efflux Pump Inhibitor (EPI), Minimum Inhibitory Concentration (Table 2, EPI Conc. 5 μg/ml) [µg/mL] | Levofloxacin MIC Against P. aeruginosa PAM1001 in Presence of Efflux Pump Inhibitor (EPI), Minimum Inhibitory Concentration (Table 2, EPI Conc. 10 μg/ml) [µg/mL] | Levofloxacin MIC Against P. aeruginosa PAM1001 in Presence of Efflux Pump Inhibitor (EPI), Minimum Inhibitory Concentration (Table 2, EPI Conc. 40 μg/ml) [µg/mL] | Levofloxacin MIC Against P. aeruginosa PAM1001 in Presence of Efflux Pump Inhibitor (EPI), Minimum Inhibitory Concentration (Table 2, EPI Conc. […]) [µg/mL] | Levofloxacin MIC Against P. aeruginosa PAM1001 in Presence of Efflux Pump Inhibitor (EPI), Minimum Inhibitory Concentration [2] [µg/mL] | Levofloxacin MIC Against P. aeruginosa PAM1001 in Presence of Efflux Pump Inhibitor (EPI), Minimum Inhibitory Concentration (Table 3, EPI Conc. 0 μg/ml) [µg/mL] | Levofloxacin MIC Against P. aeruginosa PAM1001 in Presence of Efflux Pump Inhibitor (EPI), Minimum Inhibitory Concentration (Table 3, EPI Conc. 0.625 μg/ml) [µg/mL] | Levofloxacin MIC Against P. aeruginosa PAM1001 in Presence of Efflux Pump Inhibitor (EPI), Minimum Inhibitory Concentration (Table 3, EPI Conc. 5 μg/ml) [µg/mL] | Levofloxacin MIC Against P. aeruginosa PAM1001 in Presence of Efflux Pump Inhibitor (EPI), Minimum Inhibitory Concentration (Table 3, EPI Conc. 10 μg/ml) [µg/mL] | Levofloxacin MIC Against P. aeruginosa PAM1001 in Presence of Efflux Pump Inhibitor (EPI), Minimum Inhibitory Concentration (Table 3, EPI Conc. 40 μg/ml) [µg/mL] | Levofloxacin MIC Against P. aeruginosa PAM1001 in Presence of Efflux Pump Inhibitor (EPI), Minimum Inhibitory Concentration [3] [µg/mL] | also measured
1 | D-Ornithyl-β-(N-phenylpropyl)alanine 2-naphthylamide [Compound 20 (Table 3)] | 4 | 4 | 4 | 2 | 0.25 | 4 | 1 | 4 | 4 | 2 | 1 | 0.03 | 4 | 0.50 | 4 | 4 | 2 | 0.50 | 0.015 | 0.03 | Levofloxacin MIC Against P. aeruginosa PAM1001 in Presence of Efflux Pump Inhibitor (EPI), Minimum Inhibitory Concentration (Table 3, EPI Conc. […]): 4 µg/mL; Levofloxacin MIC Against P. aeruginosa PAM1001 in Presence of Efflux Pump Inhibitor (EPI), Minimum Inhibitory Concentration (Table 4, EPI Conc. 0 μg/ml): 4 µg/mL; Levofloxacin MIC Against P. aeruginosa PAM1001 in Presence of Efflux Pump Inhibitor (EPI), Minimum Inhibitory Concentration (Table 4, EPI Conc. 0.625 μg/ml): 4 µg/mL; Levofloxacin MIC Against P. aeruginosa PAM1001 in Presence of Efflux Pump Inhibitor (EPI), Minimum Inhibitory Concentration (Table 4, EPI Conc. 5 μg/ml): 2 µg/mL; Levofloxacin MIC Against P. aeruginosa PAM1001 in Presence of Efflux Pump Inhibitor (EPI), Minimum Inhibitory Concentration (Table 4, EPI Conc. 10 μg/ml): 2 µg/mL; Levofloxacin MIC Against P. aeruginosa PAM1001 in Presence of Efflux Pump Inhibitor (EPI), Minimum Inhibitory Concentration (Table 4, EPI Conc. 40 μg/ml): 1 µg/mL; Levofloxacin MIC Against P. aeruginosa PAM1001 in Presence of Efflux Pump Inhibitor (EPI), Minimum Inhibitory Concentration (Table 4, EPI Conc. […]): 4 µg/mL; Levofloxacin MIC Against P. aeruginosa PAM1001 in Presence of Efflux Pump Inhibitor (EPI), Minimum Inhibitory Concentration [4]: 2 µg/mL
2 | D-Ornithyl-β-(N-phenylpropyl)alanine quinoline-3-amide [Compound 22 (Table 3)] | 4 | 4 | 2 | 1 | 0.06 | 4 | 0.50 | 4 | 4 | 2 | 1 | 0.06 | 4 | 0.125 | 4 | 4 | 1 | 0.50 | 0.015 | 0.25 | Levofloxacin MIC Against P. aeruginosa PAM1001 in Presence of Efflux Pump Inhibitor (EPI), Minimum Inhibitory Concentration (Table 4, EPI Conc. 0 μg/ml): 4 µg/mL; Levofloxacin MIC Against P. aeruginosa PAM1001 in Presence of Efflux Pump Inhibitor (EPI), Minimum Inhibitory Concentration (Table 4, EPI Conc. 0.625 μg/ml): 4 µg/mL; Levofloxacin MIC Against P. aeruginosa PAM1001 in Presence of Efflux Pump Inhibitor (EPI), Minimum Inhibitory Concentration (Table 4, EPI Conc. 5 μg/ml): 1 µg/mL; Levofloxacin MIC Against P. aeruginosa PAM1001 in Presence of Efflux Pump Inhibitor (EPI), Minimum Inhibitory Concentration (Table 4, EPI Conc. 10 μg/ml): 0.125 µg/mL; Levofloxacin MIC Against P. aeruginosa PAM1001 in Presence of Efflux Pump Inhibitor (EPI), Minimum Inhibitory Concentration (Table 4, EPI Conc. 40 μg/ml): 0.125 µg/mL; Levofloxacin MIC Against P. aeruginosa PAM1001 in Presence of Efflux Pump Inhibitor (EPI), Minimum Inhibitory Concentration [4]: 0.125 µg/mL
3 | D-Ornithyl-β-N-(Cyclopropylmethyl)alanine Quinoline-2-amide Trifluoroacetate [Example 28] | 4 | 4 | 2 | 1 | 0.125 | 4 | 0.06 | 4 | 4 | 1 | 0.50 | 0.125 | 4 | 0.25 | 4 | 4 | 0.015 | 0.008 | 0.015 | 0.015 | Levofloxacin MIC Against P. aeruginosa PAM1001 in Presence of Efflux Pump Inhibitor (EPI), Minimum Inhibitory Concentration (Table 4, EPI Conc. 0 μg/ml): 4 µg/mL; Levofloxacin MIC Against P. aeruginosa PAM1001 in Presence of Efflux Pump Inhibitor (EPI), Minimum Inhibitory Concentration (Table 4, EPI Conc. 0.625 μg/ml): 4 µg/mL; Levofloxacin MIC Against P. aeruginosa PAM1001 in Presence of Efflux Pump Inhibitor (EPI), Minimum Inhibitory Concentration (Table 4, EPI Conc. 5 μg/ml): 2 µg/mL; Levofloxacin MIC Against P. aeruginosa PAM1001 in Presence of Efflux Pump Inhibitor (EPI), Minimum Inhibitory Concentration (Table 4, EPI Conc. 10 μg/ml): 0.25 µg/mL; Levofloxacin MIC Against P. aeruginosa PAM1001 in Presence of Efflux Pump Inhibitor (EPI), Minimum Inhibitory Concentration (Table 4, EPI Conc. 40 μg/ml): 0.125 µg/mL; Levofloxacin MIC Against P. aeruginosa PAM1001 in Presence of Efflux Pump Inhibitor (EPI), Minimum Inhibitory Concentration [4]: 0.125 µg/mL
